In the NIST ThermoML archive (doi:10.1021/acs.jced.6b00178):

Test: xn = mol fraction of the nth substance listed
Details: 100 kPa, Liquid; for viscosity: Concentric cylinders viscometry; for mass density: Vibrating tube method

CCCC[n+]1ccn(C)c1.O=S(=O)([N-]S(=O)(=O)C(F)(F)F)C(F)(F)F + CCCCn1cc[n+](C)c1.F[B-](F)(F)F
Details	mass density, x1 = 0.25 [kg/m3]	mass density, x1 = 0.498 [kg/m3]	mass density, x1 = 0.751 [kg/m3]	mass density, x1 = 1 [kg/m3]	viscosity, x1 = 0.25 [mPa·s]	viscosity, x1 = 0.498 [mPa·s]	viscosity, x1 = 0.751 [mPa·s]	viscosity, x1 = 1 [mPa·s]
283.15 K	1291.2	1355.8	1409.1	1451.8	200.83	158.06	127.96	106.77
288.15 K	1287.1	1351.4	1404.4	1446.9	149.79	119.67	97.87	82.16
293.15 K	1283.1	1347.1	1399.8	1442.1	114.12	92.47	76.33	64.53
298.15 K	1279.1	1342.8	1395.1	1437.2	88.56	72.77	60.64	51.6
303.15 K	1275.1	1338.5	1390.5	1432.4	69.91	58.24	48.97	41.93
308.15 K	1271.2	1334.2	1386	1427.6	56.12	47.31	40.14	34.59
313.15 K	1267.3	1329.9	1381.5	1422.8	45.7	38.96	33.35	28.91
318.15 K	1263.4	1325.7	1376.9	1418.1	37.72	32.48	28.05	24.46
323.15 K	1259.5	1321.4	1372.4	1413.4	31.52	27.36	23.85	20.91
328.15 K	1255.6	1317.2	1368	1408.7	26.63	23.29	20.48	18.05
333.15 K	1251.8	1313.1	1363.5	1404	22.71	20.02	17.75	15.72
338.15 K	1248	1308.9	1359.1	1399.3	19.58	17.36	15.51	13.8
343.15 K	1244.2	1304.8	1354.8	1394.7	17.02	15.19	13.66	12.2
348.15 K	1240.4	1300.7	1350.4	1390.1	14.91	13.38	12.11	10.86
353.15 K	1236.7	1296.6	1346	1385.5	13.15	11.84	10.81	9.72
358.15 K	1233	1292.6	1341.7	1381	11.66	10.55	9.688	8.754
363.15 K	1229.3	1288.6	1337.5	1376.4	10.42	9.467	8.733	7.926

CCCCn1cc[n+](C)c1.COP(=O)([O-])OC [1-butyl-3-methyl-1H-imidazolium dimethylphosphate] + CCCC[n+]1ccn(C)c1.O=S(=O)([N-]S(=O)(=O)C(F)(F)F)C(F)(F)F
Details	mass density, x2 = 0 [kg/m3]	mass density, x2 = 0.25 [kg/m3]	mass density, x2 = 0.501 [kg/m3]	mass density, x2 = 0.747 [kg/m3]	viscosity, x2 = 0 [mPa·s]	viscosity, x2 = 0.25 [mPa·s]	viscosity, x2 = 0.501 [mPa·s]	viscosity, x2 = 0.747 [mPa·s]
283.15 K	1168.4	1251	1325.1	1390.6	2315.6	1433.7	630.61	251.51
288.15 K	1164.9	1247	1320.6	1386	1454.6	930.25	433.3	183.6
293.15 K	1161.4	1243.1	1316.2	1381.5	943.97	618.01	301.49	137.3
298.15 K	1157.9	1239.1	1312	1377	641.71	432.55	222.26	104.86
303.15 K	1154.3	1235.2	1307.8	1372.5	446.92	307.85	165.15	81.71
308.15 K	1150.9	1231.4	1303.7	1368.1	319.33	224.53	125.35	64.81
313.15 K	1147.6	1227.7	1299.7	1363.6	232.1	166.25	96.27	52.46
318.15 K	1144.3	1224.1	1295.6	1359.2	174.7	127.53	76.39	42.72
323.15 K	1141	1220.4	1291.6	1354.8	133.37	98.92	61.14	35.4
328.15 K	1137.8	1216.8	1287.6	1350.4	103.62	78.04	49.65	29.69
333.15 K	1134.6	1213.2	1283.5	1346	81.97	62.7	41.07	25.42
338.15 K	1131.4	1209.7	1279.5	1341.7	65.62	50.83	34.05	21.56
343.15 K	1128.3	1206.1	1275.6	1337.4	53.39	41.87	28.69	18.63
348.15 K	1125.1	1202.5	1271.6	1333.1	44.01	34.9	24.42	16.23
353.15 K	1122	1199	1267.7	1328.8	37.08	29.8	21.36	14.57
358.15 K	1118.9	1195.5	1263.7	1324.6	30.94	25.03	18.18	12.61
363.15 K	1115.7	1192	1259.9	1320.4	26.33	21.5	15.88	11.22
